{"source": "the supplement of paper PMC10307832", "experiment_in_all_cases": "relative viability (nuclei count vs DMSO), 5 days (fraction); higher = more cells survive", "key": {"NCI-H1437": {"system": "NCI-H1437", "summary_of_the_method": "(§1)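 Medians of duplicate plates are given as relative viability. That measure is the nuclei count in treated wells divided by the count in vehicle wells. Counts were taken on 4× images of lung cancer cell lines in 1536-well plates, 5 days after pin-tool dosing the day after seeding with one drug alone or a fixed anchor-drug dose plus five library-drug doses (not always all listed) in √10 steps.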"}, "CAL-12T": {"system": "CAL-12T", "summary_of_the_method": "as §1"}, "NCI-H460": {"system": "NCI-H460", "summary_of_the_method": "as §1"}, "NCI-H1755": {"system": "NCI-H1755", "summary_of_the_method": "as §1"}, "EMC-BAC-2": {"system": "EMC-BAC-2", "summary_of_the_method": "as §1"}, "LCLC-103H": {"system": "LCLC-103H", "summary_of_the_method": "as §1"}, "HCC-366": {"system": "HCC-366", "summary_of_the_method": "as §1"}, "NCI-H727": {"system": "NCI-H727", "summary_of_the_method": "as §1"}, "NCI-H2009": {"system": "NCI-H2009", "summary_of_the_method": "as §1"}, "NCI-H2228": {"system": "NCI-H2228", "summary_of_the_method": "as §1"}, "SK-LU-1": {"system": "SK-LU-1", "summary_of_the_method": "as §1"}, "NCI-H1395": {"system": "NCI-H1395", "summary_of_the_method": "as §1"}, "NCI-H1915": {"system": "NCI-H1915", "summary_of_the_method": "as §1"}, "NCI-H23": {"system": "NCI-H23", "summary_of_the_method": "as §1"}, "HOP-62": {"system": "HOP-62", "summary_of_the_method": "as §1"}, "NCI-H1355": {"system": "NCI-H1355", "summary_of_the_method": "as §1"}, "SW 1573": {"system": "SW 1573", "summary_of_the_method": "as §1"}, "HCC-827": {"system": "HCC-827", "summary_of_the_method": "as §1"}, "NCI-H1975": {"system": "NCI-H1975", "summary_of_the_method": "as §1"}, "A-427": {"system": "A-427", "summary_of_the_method": "as §1"}, "COR-L 105": {"system": "COR-L 105", "summary_of_the_method": "as §1"}, "HARA": {"system": "HARA", "summary_of_the_method": "as §1"}}}
{"smiles": "CC(C)Oc1cc(Nc2nc(N[C@@H](C)c3ccc(F)cn3)ncc2Cl)n[nH]1", "note": "[AZ23] + COc1cc2c(Oc3ccc(NC(=O)C4(C(=O)Nc5ccc(F)cc5)CC4)cc3F)ccnc2cc1OCCCN1CCOCC1 [Foretinib] (partner 0.25 µM)", "values": [{"measurement": "relative viability", "setting": "NCI-H1437; first compound 0.01 µM", "result": 1.37}, {"measurement": "relative viability", "setting": "NCI-H1437; first compound 0.03162 µM", "result": 1.35}, {"measurement": "relative viability", "setting": "NCI-H1437; first compound 0.3162 µM", "result": 1.4}, {"measurement": "relative viability", "setting": "CAL-12T; first compound 0.03162 µM", "result": 1.14}, {"measurement": "relative viability", "setting": "CAL-12T; first compound 0.3162 µM", "result": 0.884}, {"measurement": "relative viability", "setting": "NCI-H460; first compound 0.01 µM", "result": 1.12}, {"measurement": "relative viability", "setting": "NCI-H460; first compound 0.03162 µM", "result": 1.11}, {"measurement": "relative viability", "setting": "NCI-H460; first compound 0.3162 µM", "result": 1.05}, {"measurement": "relative viability", "setting": "NCI-H1755; first compound 0.01 µM", "result": 0.949}, {"measurement": "relative viability", "setting": "NCI-H1755; first compound 0.03162 µM", "result": 0.94}, {"measurement": "relative viability", "setting": "NCI-H1755; first compound 0.3162 µM", "result": 0.958}, {"measurement": "relative viability", "setting": "EMC-BAC-2; first compound 0.01 µM", "result": 1.12}, {"measurement": "relative viability", "setting": "EMC-BAC-2; first compound 0.03162 µM", "result": 1.06}, {"measurement": "relative viability", "setting": "EMC-BAC-2; first compound 0.3162 µM", "result": 0.989}, {"measurement": "relative viability", "setting": "LCLC-103H; first compound 0.01 µM", "result": 0.729}, {"measurement": "relative viability", "setting": "LCLC-103H; first compound 0.03162 µM", "result": 0.817}, {"measurement": "relative viability", "setting": "LCLC-103H; first compound 0.3162 µM", "result": 0.78}, {"measurement": "relative viability", "setting": "HCC-366; first compound 0.01 µM", "result": 1.13}, {"measurement": "relative viability", "setting": "HCC-366; first compound 0.03162 µM", "result": 0.995}, {"measurement": "relative viability", "setting": "HCC-366; first compound 0.3162 µM", "result": 0.933}, {"measurement": "relative viability", "setting": "NCI-H727; first compound 0.01 µM", "result": 0.789}, {"measurement": "relative viability", "setting": "NCI-H727; first compound 0.03162 µM", "result": 0.852}, {"measurement": "relative viability", "setting": "NCI-H727; first compound 0.3162 µM", "result": 1.1}, {"measurement": "relative viability", "setting": "NCI-H2009; first compound 0.01 µM", "result": 1.23}, {"measurement": "relative viability", "setting": "NCI-H2009; first compound 0.03162 µM", "result": 1.26}, {"measurement": "relative viability", "setting": "NCI-H2009; first compound 0.3162 µM", "result": 1.23}, {"measurement": "relative viability", "setting": "NCI-H2228; first compound 0.01 µM", "result": 1.06}, {"measurement": "relative viability", "setting": "NCI-H2228; first compound 0.03162 µM", "result": 1.26}, {"measurement": "relative viability", "setting": "NCI-H2228; first compound 0.3162 µM", "result": 0.875}, {"measurement": "relative viability", "setting": "SK-LU-1; first compound 0.03162 µM", "result": 0.969}, {"measurement": "relative viability", "setting": "SK-LU-1; first compound 0.3162 µM", "result": 0.821}, {"measurement": "relative viability", "setting": "NCI-H1395; first compound 0.03162 µM", "result": 1.02}, {"measurement": "relative viability", "setting": "NCI-H1395; first compound 0.3162 µM", "result": 1}, {"measurement": "relative viability", "setting": "NCI-H1915; first compound 0.01 µM", "result": 1.22}, {"measurement": "relative viability", "setting": "NCI-H1915; first compound 0.03162 µM", "result": 1.14}, {"measurement": "relative viability", "setting": "NCI-H1915; first compound 0.3162 µM", "result": 1.08}, {"measurement": "relative viability", "setting": "NCI-H23; first compound 0.03162 µM", "result": 1.07}, {"measurement": "relative viability", "setting": "NCI-H23; first compound 0.3162 µM", "result": 0.596}, {"measurement": "relative viability", "setting": "HOP-62; first compound 0.01 µM", "result": 1.33}, {"measurement": "relative viability", "setting": "HOP-62; first compound 0.03162 µM", "result": 1.15}, {"measurement": "relative viability", "setting": "HOP-62; first compound 0.3162 µM", "result": 1.3}, {"measurement": "relative viability", "setting": "NCI-H1355; first compound 0.01 µM", "result": 1.21}, {"measurement": "relative viability", "setting": "NCI-H1355; first compound 0.03162 µM", "result": 1.07}, {"measurement": "relative viability", "setting": "NCI-H1355; first compound 0.3162 µM", "result": 1.01}, {"measurement": "relative viability", "setting": "SW 1573; first compound 0.01 µM", "result": 1.28}, {"measurement": "relative viability", "setting": "SW 1573; first compound 0.03162 µM", "result": 1.1}, {"measurement": "relative viability", "setting": "SW 1573; first compound 0.3162 µM", "result": 0.562}, {"measurement": "relative viability", "setting": "HCC-827; first compound 0.01 µM", "result": 1.05}, {"measurement": "relative viability", "setting": "HCC-827; first compound 0.03162 µM", "result": 1.09}, {"measurement": "relative viability", "setting": "HCC-827; first compound 0.3162 µM", "result": 1.11}, {"measurement": "relative viability", "setting": "NCI-H1975; first compound 0.01 µM", "result": 1.05}, {"measurement": "relative viability", "setting": "NCI-H1975; first compound 0.03162 µM", "result": 1.14}, {"measurement": "relative viability", "setting": "NCI-H1975; first compound 0.3162 µM", "result": 0.99}, {"measurement": "relative viability", "setting": "A-427; first compound 0.01 µM", "result": 1}, {"measurement": "relative viability", "setting": "A-427; first compound 0.03162 µM", "result": 1.05}, {"measurement": "relative viability", "setting": "A-427; first compound 0.3162 µM", "result": 1.07}, {"measurement": "relative viability", "setting": "COR-L 105; first compound 0.01 µM", "result": 1.07}, {"measurement": "relative viability", "setting": "COR-L 105; first compound 0.03162 µM", "result": 1.26}, {"measurement": "relative viability", "setting": "COR-L 105; first compound 0.3162 µM", "result": 0.842}, {"measurement": "relative viability", "setting": "HARA; first compound 0.03162 µM", "result": 1.04}, {"measurement": "relative viability", "setting": "HARA; first compound 0.3162 µM", "result": 0.783}]}
